Source: US20160221974A1, “SODIUM CHANNEL MODULATORS FOR THE TREATMENT OF PAIN AND DIABETES” (CHROMOCELL CORPORATION, priority 2013, published 2016)
Each block holds one compound with its values, some of them ahead of it.

Columns and labels:
hNaV1.7 = target: T1, hNaV1.7 (Homo sapiens, UniProt Q15858); assay: FDSS Membrane Potential In-Vitro Assay; type: cell-based; settings: stimulation with veratridine and scorpion venom, read-out: NaV1.7 IC50
T1 construct: expressed in transfected cells

CYP3A4 = target: T2, CYP3A4 (Homo sapiens, UniProt P08684); assay: In-Vitro Cytochrome P450 (CYP450) Inhibition Assay (Vivid CYP450); type: in vitro ADME; settings: CYP3A4 enzyme complex (Vivid CYP450, Invitrogen), 6 μM test concentration
T2 construct: purchased Invitrogen
Method: We evaluated interaction of drug candidates with cytochrome P450 enzymes which are a major determinant of drug clearance via oxidative metabolism using a high throughput compatible, fluorescence based CYP450 screening assay (Vivid® CYP450, Invitrogen) according to manufacturer's directions.
In brief, test compounds at four different concentrations (μM—6.0, 2.0, 0.7, 0.2), a positive control (Ketoconazole) and a solvent control were incubated at room temperature in unique wells of a 96-well microtiter plate with CYP3A4 enzyme complex for 20 minutes. A pre-read fluorescence (Ex−485 nm/Em−530 nm) was measured at the start of the incubation using a Tecan Safire^2 microplate reader-monochromator to determine background fluorescence. At the end of the incubation period, enzyme substrate and co-enzyme were added and the reaction was kinetically monitored for 1 hour by measuring fluorescence every minute. Effect of test compounds on inhibition of CYP3A4 metabolism of provided substrate was determined by calculating the ratio of the effective reaction rate in presence of test compound to that in the absence of inhibitor.

NaV1.7 = target: T3, NaV1.7 (Homo sapiens, UniProt Q15858); assay: Patchliner Electrophysiological In-Vitro Assay (NaV1.7); type: cell-based; settings: Patchliner patch clamp, HEK293, holding at V1/2
T3 construct: expressed in transfected cells
Method: In vitro assays were performed in recombinant cell line that stably express a heterotrimeric protein of interest from an introduced nucleic acid encoding the alpha subunit (hNav1.7, SCN9A), the beta subunit (SCNB1) and the beta subunit (SCNB2). The cell line was engineered using Human Embryonic Kidney 293 cells as host background. Additional cell lines stably expressing recombinant Nav1.7 or Nav1.5 alpha subunit alone or in combination with various beta subunits can also be used in in-vitro assays.
The recording of sodium current from stable HEK293 cell lines expressing NaV1.7 or NaV1.5 was done on a Patchliner® instrument, Nanion Technologies. The Patchliner® is a fully automated bench-top patch clamp platform and can record simultaneously from up to eight single cells with GΩ seals.
For patch-clamp experiments, cells were grown under standard culturing conditions in Dulbecco's Modified Eagles medium supplemented with 10% fetal bovine serum, glutamine and HEPES. Cells were harvested and kept in suspension for up to 4 hours with no significant change in quality or ability to patch. Whole cell patch clamp recordings were conducted according to Nanion's standard procedure for the Patchliner®. Experiments were conducted at room temperature.
Voltage protocols were designed to establish: 1) peak current amplitude (Imax), 2) test potential (Vmax) and 3) half-inactivation potential (V1/2) for each of the eight individual cells. To determine V1/2, a standard steady-state inactivation protocol was executed using a series of fifteen 500 ms depolarizing pre-pulses in 10 mV increments (starting at −130 mV) and immediately followed by a 10 ms test pulse to Vmax. To estimate test compound affinity to the inactivated state of sodium channel (Ki), the holding potential for each cell was set automatically to the V1/2 calculated from a steady-state inactivation data. The current was activated with the following voltage protocol: holding at V1/2 for 2-5 seconds, return to the −120 mV for 5-10 ms to relieve fast inactivation, stepping to test potential (Vmax) for 10-20 ms. This voltage protocol was repeated every 10 seconds to establish the baseline with 2-3 buffer additions followed by the test compound addition. The dose-dependent inhibition was analyzed using Nanion's Data Analysis Package.

T2 sequence (P08684 2-503 limits assumed): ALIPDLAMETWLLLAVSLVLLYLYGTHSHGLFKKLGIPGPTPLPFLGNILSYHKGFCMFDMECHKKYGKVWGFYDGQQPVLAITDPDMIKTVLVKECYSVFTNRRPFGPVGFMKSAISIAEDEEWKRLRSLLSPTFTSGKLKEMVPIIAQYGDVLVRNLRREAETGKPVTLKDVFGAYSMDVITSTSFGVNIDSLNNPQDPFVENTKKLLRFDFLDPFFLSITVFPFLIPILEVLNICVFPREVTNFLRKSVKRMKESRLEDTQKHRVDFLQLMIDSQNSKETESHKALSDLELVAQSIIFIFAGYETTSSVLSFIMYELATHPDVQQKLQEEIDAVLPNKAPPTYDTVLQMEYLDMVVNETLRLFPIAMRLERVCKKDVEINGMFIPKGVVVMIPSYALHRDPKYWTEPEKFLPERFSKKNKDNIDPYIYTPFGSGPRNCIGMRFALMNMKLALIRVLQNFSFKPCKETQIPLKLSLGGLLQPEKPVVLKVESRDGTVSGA
T3 sequence (Q15858 whole entry): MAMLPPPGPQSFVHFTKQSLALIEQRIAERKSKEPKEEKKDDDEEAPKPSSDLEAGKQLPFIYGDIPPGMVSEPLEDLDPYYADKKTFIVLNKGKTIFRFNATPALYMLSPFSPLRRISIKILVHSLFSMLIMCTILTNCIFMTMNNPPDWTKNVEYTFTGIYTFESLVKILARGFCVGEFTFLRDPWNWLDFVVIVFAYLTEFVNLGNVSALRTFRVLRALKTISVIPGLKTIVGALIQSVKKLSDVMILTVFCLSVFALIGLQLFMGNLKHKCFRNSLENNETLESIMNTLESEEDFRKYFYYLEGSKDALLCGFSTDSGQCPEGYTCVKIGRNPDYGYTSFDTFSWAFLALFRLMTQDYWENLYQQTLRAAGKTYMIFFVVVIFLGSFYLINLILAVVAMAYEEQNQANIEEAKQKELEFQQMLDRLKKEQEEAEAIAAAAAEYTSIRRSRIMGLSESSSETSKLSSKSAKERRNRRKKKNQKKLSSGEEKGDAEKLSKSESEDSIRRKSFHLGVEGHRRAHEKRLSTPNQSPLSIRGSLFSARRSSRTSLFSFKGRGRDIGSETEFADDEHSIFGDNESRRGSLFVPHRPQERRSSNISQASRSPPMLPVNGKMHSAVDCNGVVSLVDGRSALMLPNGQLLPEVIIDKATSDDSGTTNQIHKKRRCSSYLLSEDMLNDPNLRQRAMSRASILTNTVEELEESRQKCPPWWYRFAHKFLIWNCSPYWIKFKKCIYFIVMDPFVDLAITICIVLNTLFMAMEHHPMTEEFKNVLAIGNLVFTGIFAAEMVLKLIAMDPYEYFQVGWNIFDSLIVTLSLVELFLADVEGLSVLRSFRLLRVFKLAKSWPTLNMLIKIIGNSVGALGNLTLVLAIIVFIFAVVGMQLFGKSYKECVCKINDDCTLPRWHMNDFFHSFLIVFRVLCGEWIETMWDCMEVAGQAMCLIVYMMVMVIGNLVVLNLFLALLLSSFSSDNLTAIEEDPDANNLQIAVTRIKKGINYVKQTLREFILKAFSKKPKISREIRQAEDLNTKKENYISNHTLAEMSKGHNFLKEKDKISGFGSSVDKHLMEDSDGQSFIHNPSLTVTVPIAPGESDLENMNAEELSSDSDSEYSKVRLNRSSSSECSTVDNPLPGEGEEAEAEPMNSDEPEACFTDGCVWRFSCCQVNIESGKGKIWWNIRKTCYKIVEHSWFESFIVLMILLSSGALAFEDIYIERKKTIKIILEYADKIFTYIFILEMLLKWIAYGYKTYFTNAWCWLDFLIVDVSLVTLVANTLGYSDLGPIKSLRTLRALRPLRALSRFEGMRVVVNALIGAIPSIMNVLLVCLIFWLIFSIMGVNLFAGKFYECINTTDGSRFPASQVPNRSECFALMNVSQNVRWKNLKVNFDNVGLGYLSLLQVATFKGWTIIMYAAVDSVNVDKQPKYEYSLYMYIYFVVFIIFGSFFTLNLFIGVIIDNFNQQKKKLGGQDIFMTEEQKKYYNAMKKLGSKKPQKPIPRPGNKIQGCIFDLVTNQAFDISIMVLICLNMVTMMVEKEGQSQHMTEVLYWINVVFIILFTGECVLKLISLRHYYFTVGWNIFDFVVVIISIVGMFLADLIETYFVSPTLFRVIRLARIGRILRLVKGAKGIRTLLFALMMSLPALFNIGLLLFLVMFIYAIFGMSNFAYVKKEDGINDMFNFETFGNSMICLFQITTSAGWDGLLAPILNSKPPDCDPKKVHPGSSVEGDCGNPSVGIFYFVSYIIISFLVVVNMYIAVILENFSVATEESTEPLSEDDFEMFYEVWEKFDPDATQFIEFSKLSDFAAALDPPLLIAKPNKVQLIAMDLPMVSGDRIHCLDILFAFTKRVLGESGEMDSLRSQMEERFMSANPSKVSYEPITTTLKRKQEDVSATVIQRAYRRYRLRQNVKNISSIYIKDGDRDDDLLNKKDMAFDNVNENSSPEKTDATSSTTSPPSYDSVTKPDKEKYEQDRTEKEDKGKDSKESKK
T3 sequence (Q07699 19-218 partner): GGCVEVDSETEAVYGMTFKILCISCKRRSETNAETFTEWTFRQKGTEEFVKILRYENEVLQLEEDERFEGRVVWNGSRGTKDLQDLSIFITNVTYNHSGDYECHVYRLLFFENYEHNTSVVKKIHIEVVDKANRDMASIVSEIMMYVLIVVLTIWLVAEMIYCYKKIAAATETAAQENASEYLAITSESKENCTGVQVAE
T3 sequence (O60939 30-215 partner): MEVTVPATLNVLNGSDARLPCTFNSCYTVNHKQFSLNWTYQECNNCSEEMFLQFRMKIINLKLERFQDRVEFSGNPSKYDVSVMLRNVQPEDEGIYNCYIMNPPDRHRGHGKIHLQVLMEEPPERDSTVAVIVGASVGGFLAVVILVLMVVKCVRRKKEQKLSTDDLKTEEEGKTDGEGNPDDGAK
T1 sequence (Q15858 whole entry): as the sequence (Q15858 whole entry) above
T1 sequence (Q07699 19-218 partner): as the sequence (Q07699 19-218 partner) above
T1 sequence (O60939 30-215 partner): as the sequence (O60939 30-215 partner) above

SMILES: O=C(O)C1CCN(CCCc2cc(Cl)ccc2Oc2cc(F)c(S(=O)(=O)Nc3ncns3)cc2Cl)CC1 [Compound 32, 1-(3-(2-(4-(N-(1,2,4-thiadiazol-5-yl)sulfamoyl)-2-chloro-5-fluorophenoxy)-5-chlorophenyl)propyl)piperidine-4-carboxylic acid]
IC50 (hNaV1.7): < 0.13 µM
inhibition at 1 hour, 6 µM (CYP3A4): 50 to 100%
IC50 (NaV1.7): < 0.1 µM

SMILES: C[C@@H](NC(=O)c1cc(-c2cc(Cl)ccc2Oc2cc(F)c(S(=O)(=O)Nc3ncns3)cc2Cl)ccn1)C(=O)O [Compound 6, (R)-2-(4-(2-(4-(N-(1,2,4-thiadiazol-5-yl)sulfamoyl)-2-chloro-5-fluorophenoxy)-5-chlorophenyl)picolinamido)propanoic acid]
IC50 (hNaV1.7): 0.13 to 1 µM
inhibition at 1 hour, 6 µM (CYP3A4): 25 to 50%
IC50 (NaV1.7): < 0.1 µM

SMILES: COC(=O)CN(C)CCCc1cc(Cl)ccc1Oc1cc(F)c(S(=O)(=O)Nc2cscn2)cc1Cl [Compound 52, methyl 2-((3-(5-chloro-2-(2-chloro-5-fluoro-4-(N-(thiazol-4-yl)sulfamoyl)phenoxy)phenyl)propyl)(methyl)amino)acetate]
IC50 (hNaV1.7): 1 to 20 µM
IC50 (NaV1.7): 0.1 to 0.5 µM

SMILES: O=C(O)CCCCNC(=O)c1cc(-c2cc(Cl)ccc2Oc2cc(F)c(S(=O)(=O)Nc3ncns3)cc2Cl)ccn1 [Compound 3, 5-(4-(2-(4-(N-(1,2,4-thiadiazol-5-yl)sulfamoyl)-2-chloro-5-fluorophenoxy)-5-chlorophenyl)picolinamido)pentanoic acid]
IC50 (hNaV1.7): < 0.13 µM
inhibition at 1 hour, 6 µM (CYP3A4): 50 to 100%

SMILES: O=C(O)CNCCCc1ccccc1Oc1cc(F)c(S(=O)(=O)Nc2ncns2)cc1Cl [Compound 20, 2-((3-(2-(4-(N-(1,2,4-thiadiazol-5-yl)sulfamoyl)-2-chloro-5-fluorophenoxy)phenyl)propyl)amino)acetic acid]
IC50 (hNaV1.7): 0.13 to 1 µM
inhibition at 1 hour, 6 µM (CYP3A4): 50 to 100%
IC50 (NaV1.7): < 0.1 µM

SMILES: CN(CCCc1cc(Cl)ccc1Oc1cc(F)c(S(=O)(=O)Nc2cscn2)cc1Cl)CC(=O)O [Compound 47, 2-((3-(5-chloro-2-(2-chloro-5-fluoro-4-(N-(thiazol-4-yl)sulfamoyl)phenoxy)phenyl)propyl)(methyl)amino)acetic acid]
IC50 (hNaV1.7): 1 to 20 µM
IC50 (NaV1.7): 1 to 10 µM

SMILES: O=C(O)CCNC(=O)c1cc(-c2cc(Cl)ccc2Oc2cc(F)c(S(=O)(=O)Nc3ncns3)cc2F)ccn1 [Compound 10, 3-(4-(2-(4-(N-(1,2,4-thiadiazol-5-yl)sulfamoyl)-2,5-difluorophenoxy)-5-chlorophenyl)picolinamido)propanoic acid]
IC50 (hNaV1.7): 0.13 to 1 µM
inhibition at 1 hour, 6 µM (CYP3A4): 25 to 50%

SMILES: NC1(C(=O)O)CCN(CCCc2cc(Cl)ccc2Oc2cc(F)c(S(=O)(=O)Nc3cscn3)cc2Cl)CC1 [Compound 16, 4-amino-1-(3-(5-chloro-2-(2-chloro-5-fluoro-4-(N-(thiazol-4-yl)sulfamoyl)phenoxy)phenyl)propyl)piperidine-4-carboxylic acid]
IC50 (hNaV1.7): < 0.13 µM
inhibition at 1 hour, 6 µM (CYP3A4): 25 to 50%
IC50 (NaV1.7): < 0.1 µM

SMILES: O=C(O)CC1CCN(CCCc2cc(Cl)ccc2Oc2cc(F)c(S(=O)(=O)Nc3ncns3)cc2Cl)CC1 [Compound 28, 2-(1-(3-(2-(4-(N-(1,2,4-thiadiazol-5-yl)sulfamoyl)-2-chloro-5-fluorophenoxy)-5-chlorophenyl)propyl)piperidin-4-yl)acetic acid]
IC50 (hNaV1.7): 0.13 to 1 µM
IC50 (NaV1.7): < 0.1 µM

SMILES: O=C(O)C1CCCN(CCCc2cc(Cl)ccc2Oc2cc(F)c(S(=O)(=O)Nc3cscn3)cc2Cl)C1 (centres unmarked) [Compound 19, 1-(3-(5-chloro-2-(2-chloro-5-fluoro-4-(N-(thiazol-4-yl)sulfamoyl)phenoxy)phenyl)propyl)piperidine-3-carboxylic acid]
IC50 (hNaV1.7): 1 to 20 µM
inhibition at 1 hour, 6 µM (CYP3A4): 0 to 25%
IC50 (NaV1.7): 0.1 to 1 µM

SMILES: O=C(O)CCCNC(=O)c1cc(-c2cc(Cl)ccc2Oc2cc(F)c(S(=O)(=O)Nc3ncns3)cc2Cl)ccn1 [Compound 4, 4-(4-(2-(4-(N-(1,2,4-thiadiazol-5-yl)sulfamoyl)-2-chloro-5-fluorophenoxy)-5-chlorophenyl)picolinamido)butanoic acid]
IC50 (hNaV1.7): 0.13 to 1 µM
inhibition at 1 hour, 6 µM (CYP3A4): 50 to 100%

SMILES: O=C(O)CNCCCc1cc(Cl)ccc1Oc1cc(F)c(S(=O)(=O)Nc2cscn2)cc1F [Compound 21, 2-((3-(5-chloro-2-(2,5-difluoro-4-(N-(thiazol-4-yl)sulfamoyl)phenoxy)phenyl)propyl)amino)acetic acid]
IC50 (hNaV1.7): 1 to 20 µM
inhibition at 1 hour, 6 µM (CYP3A4): 0 to 25%
IC50 (NaV1.7): 0.1 to 1 µM

inhibition at 1 hour, 6 µM (CYP3A4): 0 to 25%
IC50 (NaV1.7): < 0.1 µM
SMILES: O=C(O)CNCCCc1cc(Cl)ccc1Oc1cc(F)c(S(=O)(=O)Nc2cscn2)cc1Cl [Compound 11, 2-((3-(5-chloro-2-(2-chloro-5-fluoro-4-(N-(thiazol-4-yl)sulfamoyl)phenoxy)phenyl)propyl)amino)acetic acid]

SMILES: CCOC(=O)N(CCCc1cc(Cl)ccc1Oc1cc(F)c(S(=O)(=O)Nc2nccs2)cc1Cl)CC(=O)O [Compound 34, 2-((3-(5-chloro-2-(2-chloro-5-fluoro-4-(N-(thiazol-2-yl)sulfamoyl)phenoxy)phenyl)propyl)(ethoxycarbonyl)amino)acetic acid]
IC50 (hNaV1.7): 0.5 to 1 µM
IC50 (NaV1.7): 0.1 to 0.5 µM

SMILES: O=C(O)CNCCCc1cc(Cl)ccc1Oc1cc(F)c(S(=O)(=O)Nc2nccs2)cc1F [Compound 18, 2-((3-(5-chloro-2-(2,5-difluoro-4-(N-(thiazol-2-yl)sulfamoyl)phenoxy)phenyl)propyl)amino)acetic acid]
IC50 (hNaV1.7): 0.13 to 1 µM
inhibition at 1 hour, 6 µM (CYP3A4): 0 to 25%
IC50 (NaV1.7): 0.1 to 1 µM

SMILES: O=C(O)CCNCCCc1cc(Cl)ccc1Oc1cc(F)c(S(=O)(=O)Nc2cscn2)cc1F [Compound 22, 3-((3-(5-chloro-2-(2,5-difluoro-4-(N-(thiazol-4-yl)sulfamoyl)phenoxy)phenyl)propyl)amino)propanoic acid]
IC50 (hNaV1.7): 1 to 20 µM
inhibition at 1 hour, 6 µM (CYP3A4): 0 to 25%
IC50 (NaV1.7): 0.1 to 1 µM

SMILES: N#Cc1cc(S(=O)(=O)Nc2cscn2)ccc1Oc1ccc(Cl)cc1CCCNCCC(=O)O [Compound 23, 3-((3-(5-chloro-2-(2-cyano-4-(N-(thiazol-4-yl)sulfamoyl)phenoxy)phenyl)propyl)amino)propanoic acid]
IC50 (hNaV1.7): 1 to 20 µM
IC50 (NaV1.7): 0.1 to 1 µM

SMILES: N#Cc1cc(S(=O)(=O)Nc2ncns2)ccc1Oc1ccc(Cl)cc1-c1ccnc(C(=O)NCCC(=O)O)c1 [Compound 9, 3-(4-(2-(4-(N-(1,2,4-thiadiazol-5-yl)sulfamoyl)-2-cyanophenoxy)-5-chlorophenyl)picolinamido)propanoic acid]
IC50 (hNaV1.7): 0.13 to 1 µM
inhibition at 1 hour, 6 µM (CYP3A4): 0 to 25%

SMILES: NC(=O)CCNCCCc1cc(Cl)ccc1Oc1cc(F)c(S(=O)(=O)Nc2cscn2)cc1Cl [Compound 26, 3-((3-(5-chloro-2-(2-chloro-5-fluoro-4-(N-(thiazol-4-yl)sulfamoyl)phenoxy)phenyl)propyl)amino)propanamide]
IC50 (hNaV1.7): < 0.13 µM
IC50 (NaV1.7): < 0.1 µM

IC50 (NaV1.7): < 0.1 µM
SMILES: COC(=O)CNCCCc1cc(Cl)ccc1Oc1cc(F)c(S(=O)(=O)Nc2cscn2)cc1Cl [Compound 24, methyl 2-((3-(5-chloro-2-(2-chloro-5-fluoro-4-(N-(thiazol-4-yl)sulfamoyl)phenoxy)phenyl)propyl)amino)acetate]

IC50 (NaV1.7): < 0.1 µM
SMILES: NC(=O)CNCCCc1cc(Cl)ccc1Oc1cc(F)c(S(=O)(=O)Nc2nccs2)cc1Cl [Compound 63, 2-((3-(5-chloro-2-(2-chloro-5-fluoro-4-(N-(thiazol-2-yl)sulfamoyl)phenoxy)phenyl)propyl)amino)acetamide]

IC50 (NaV1.7): < 0.1 µM
SMILES: NC(=O)CNCCCc1ccccc1Oc1cc(F)c(S(=O)(=O)Nc2cscn2)cc1Cl [Compound 60, 2-((3-(2-(2-chloro-5-fluoro-4-(N-(thiazol-4-yl)sulfamoyl)phenoxy)phenyl)propyl)amino)acetamide]

IC50 (NaV1.7): < 0.1 µM
SMILES: C=CCN(CCCc1cc(Cl)ccc1Oc1cc(F)c(S(=O)(=O)Nc2nccs2)cc1Cl)CC(=O)O [Compound 62, 2-(allyl(3-(5-chloro-2-(2-chloro-5-fluoro-4-(N-(thiazol-2-yl)sulfamoyl)phenoxy)phenyl)propyl)amino)acetic acid]
